The record followed here is patent publication US20120252721A1 (priority 2011, published 2012).

One series can be described thus: in vitro. Format: cell-based. To be noted: human; GS4.1 cells, cellular viability. How it is done: For cytotoxicity evaluation, GS4.1 cells were treated with compounds as described above and cellular viability was monitored using the Cell Titer 96 AQeous One Solution Cell Proliferation Assay (Promega). CC50 values were determined from the % cytotoxicity versus concentration data with Tecan Magellan software as described above.

Series [1] concerns ZS11-luc L31V (HCV genotype 1b replicon). As to the kind of experiment: Luciferase replicon transient transfection assay, ZS11-luc L31V. The class given is cell-based, hepatitis C virus. To be noted: for EC50: Hepatitis C virus, 96 h, Huh7.5 cells, 4 days. As to the method: (§1) The luciferase replicon transient transfection assay measures the ability of a test compound to inhibit the replication of a transiently-transfected HCV luciferase-bearing wild-type or mutant replicon in cured human hepatoma cells (Huh7.5). The inhibition of HCV replication was measured by quantification of luciferase protein expression. This assay has been validated using a panel of genotype 1a and 1b replicons bearing mutations known to be associated with resistance to BMS-790052. Briefly, subconfluent Huh7.5 cells were electroporated with 10 μg of wild-type or mutant luciferase-bearing HCV replicon RNA. The cells were then seeded in 96-well opaque white plates at 3×10^4 cells/well in 150 μL/well and incubated for 4 hrs at 37° C./5% CO2. Ten 1:5 serial dilutions of each test compound were made in media (DMEM containing glucose, L-glutamine and sodium pyruvate, 10% fetal bovine serum, 100 IU/mL penicillin, 100 μg/mL streptomycin, 2 mM GlutaMAX, and 1×MEM non-essential amino acids (Mediatech, Inc. and Invitrogen Corp.)) at concentrations that were 4× higher than the final concentrations to be tested and 50 μL/well was added to the transfected cells. Untreated, mock-transfected cells served as a negative control of luciferase expression. The plates were incubated at 37° C./5% CO2 for 4 days whereupon the media was removed and 50 μL of ONE-glo luciferase substrate (Promega) was added to each well. The plates were agitated on a rotating platform at room temperature for 3 min and read in a Victor^3V microplate reader (Perkin-Elmer) using a 700 nm cut-off filter with a 1 sec read time. EC50 values were calculated from dose response curves from the resulting best-fit equations determined by Microsoft Excel and XLfit 4.1 software.

In series [2] the test system is 1a-luc Q30H (HCV genotype 1a replicon). As to the kind of experiment: Luciferase replicon transient transfection assay, 1a-luc Q30H. The class given is cell-based, hepatitis C virus. To be noted: for EC50: Hepatitis C virus, 96 h, Huh7.5 cells, 4 days. How it is done:
as §1
(In general: In antiviral work, replicon cells carry a viral genome segment that copies itself.)

Series [3] deals with ZS11-luc replicon, NS3-R155K. As to the kind of experiment: Luciferase replicon transient transfection assay, NS3-R155K. Format: cell-based, hepatitis C virus. To be noted: for EC50: Hepatitis C virus. How it is done: as §1
(§2) To determine the replication capacity of each mutant relative to the wild-type parental replicon, transfected cells were plated on two plates and were not treated with compound. Luciferase activity was measured at time points of 4 hrs and 4 days after plating for each replicon. Replication capacity was calculated by dividing the day 4 CPS by the 4 hour CPS for each replicon and determining the percentage present for each mutant replicon relative to wild-type replicon values. The NS3, NS4B, and NS5B mutants were prepared and tested according to the methods described herein.

For series [4], the system named is 1a-luc L31M (HCV genotype 1a replicon). As to the kind of experiment: Luciferase replicon transient transfection assay, 1a-luc L31M. Format: cell-based, hepatitis C virus. To be noted: for EC50: Hepatitis C virus, 96 h, Huh7.5 cells, 4 days. As to the method:
as §1

The subject of series [5] is HCV genotype 1a replicon, NS5A E295G. As to the kind of experiment: Luciferase replicon transient transfection assay, genotype 1a NS5A E295G. Format: cell-based, hepatitis C virus. To be noted: for EC50: Hepatitis C virus, genotype 1a, HCV region NS5A, mutation E295G. How it is done: as §1
A further series deals with HCV genotype 5a. The experiment in a line: Replicon assay, genotype 5a (method not described). Format: cell-based. To be noted: Hepatitis C virus.
Series [6] deals with 1a-luc P32L (HCV genotype 1a replicon). The experiment in a line: Luciferase replicon transient transfection assay, 1a-luc P32L. Format: cell-based, hepatitis C virus. To be noted: for EC50: Hepatitis C virus, 96 h, Huh7.5 cells, 4 days. How it is done: as §1
Series [7] relates to ZS11-luc replicon, NS3-A156T. As to the kind of experiment: Luciferase replicon transient transfection assay, NS3-A156T. Format: cell-based, hepatitis C virus. To be noted: for EC50: Hepatitis C virus. How it is done: as §1, §2
The test system of series [8] is HCV genotype 1a replicon, NS5A K24E. As to the kind of experiment: Luciferase replicon transient transfection assay, genotype 1a NS5A K24E. Format: cell-based, hepatitis C virus. To be noted: for EC50: Hepatitis C virus, genotype 1a, HCV region NS5A, mutation K24E. As to the method: as §1
The subject of series [9] is 1a-luc M28T (HCV genotype 1a replicon). The experiment in a line: Luciferase replicon transient transfection assay, 1a-luc M28T. The class given is cell-based, hepatitis C virus. To be noted: for EC50: Hepatitis C virus, 96 h, Huh7.5 cells, 4 days. How it is done:
as §1

Series [10] has as its system HCV genotype 1a replicon, NS3 T260A. As to the kind of experiment: Luciferase replicon transient transfection assay, genotype 1a NS3 T260A. The class given is cell-based, hepatitis C virus. To be noted: for EC50: Hepatitis C virus, genotype 1a, HCV region NS3, mutation T260A. How it is done:
as §1, §2

For series [11], the system named is ZS11-luc P32L (HCV genotype 1b replicon). As to the kind of experiment: Luciferase replicon transient transfection assay, ZS11-luc P32L. The class given is cell-based, hepatitis C virus. To be noted: for EC50: Hepatitis C virus, 96 h, Huh7.5 cells, 4 days. As to the method:
as §1

Series [12] has as its system ZS11-luc L28T (HCV genotype 1b replicon). As to the kind of experiment: Luciferase replicon transient transfection assay, ZS11-luc L28T. Format: cell-based, hepatitis C virus. To be noted: for EC50: Hepatitis C virus, 96 h, Huh7.5 cells, 4 days. As to the method: as §1

With `COC(=O)N[C@H](C(=O)N1CCC[C@H]1c1ncc(-c2ccc(-c3csc4c(-c5cnc([C@@H]6CCCN6C(=O)[C@@H](NC(=O)OC)C(C)C)[nH]5)csc34)cc2)[nH]1)C(C)C` [Compound A15, [(S)-1-((S)-2-{4-[4-(6-{2-[(S)-1-((S)-2-methoxycarbonylamino-3-methyl-butyryl)-pyrrolidin-2-yl]-3H-imidazol-4-yl}-thieno[3,2-b]thiophen-3-yl)-phenyl]-1H-imidazol-2-yl}-pyrrolidine-1-carbonyl)-2-methyl-propyl]-carbamic acid methyl ester], the CC50 in “in vitro” is 10 to 75 µM.

As to `COC(=O)N[C@H](C(=O)N1CCC[C@H]1c1ncc(-c2ccc(-c3csc4c(-c5cnc([C@@H]6CCCN6C(=O)[C@H](NC(=O)OC(C)(C)C)c6ccccc6)[nH]5)csc34)cc2)[nH]1)C(C)C` [Compound A111, [(S)-1-((S)-2-{4-[4-(6-{(S)-2-[1-((R)-2-tert-butoxycarbonylamino-2-phenyl-acetyl)-pyrrolidin-2-yl]-3H-imidazol-4-yl}-thieno[3,2-b]thiophen-3-yl)-phenyl]-1H-imidazol-2-yl}-pyrrolidine-1-carbonyl)-2-methyl-propyl]-carbamic acid methyl ester], in [1], the Ratio stood at 51 and the EC50 was 0.09 nM. The half-maximal effective concentration (EC50) in series [2] was 2 nM. The molecule further came in with a CC50 in “in vitro” of more than 75 µM.

Regarding `COC(=O)N[C@H](C(=O)N1CCC[C@H]1c1nc2cc(-c3csc4c(-c5ccc(-c6cnc([C@@H]7CCCN7C(=O)[C@H](NC(=O)OC)c7ccccc7)[nH]6)cc5)csc34)ccc2[nH]1)C(C)C` [Compound A169, [(S)-1-((S)-2-{6-[6-(4-{(S)-2-[1-((R)-2-methoxycarbonylamino-2-phenyl-acetyl)-pyrrolidin-2-yl]-3H-imidazol-4-yl}-phenyl)-thieno[3,2-b]thiophen-3-yl]-1H-benzoimidazol-2-yl}-pyrrolidine-1-carbonyl)-2-methyl-propyl]-carbamic acid methyl ester], the EC50 was 1.7 pM in [3]; 0.7 nM in series [4]; 0.03 nM in series [1]; 4 pM in series [5]; less than 0.1 nM with HCV genotype 5a; 0.4 nM in series [6]. The EC50 in series [7] turned out to be 1.8 pM; in [2], 0.05 nM; in series [8] it was 4 pM; in [9] it was 0.3 nM; in [10], 3 pM; in series [11], 0.02 nM. The EC50 in series [12] was found to be 0.2 nM. Moreover, the Ratio in series [3] was 1.01; in [4] it was 311; in series [1], 14; in series [5], 1.62; in series [6], 173; in series [7], 1.09. For the same molecule, the Ratio in [2] is listed as 24; in [8] it was 1.83; in series [9] it was 155; in [10], 1.57; in [11] it was 8; in series [12] it was 73.

Regarding `COC(=O)N[C@H](C(=O)N1CCC[C@H]1c1ncc(-c2ccc(-c3csc4c(-c5ccc6[nH]c([C@@H]7CCCN7C(=O)[C@H](NC(=O)OC)c7ccccc7)nc6c5)csc34)cc2)[nH]1)C(C)C` [Compound A172, [(S)-1-((S)-2-{5-[4-(6-{(S)-2-[1-((R)-2-Methoxycarbonylamino-2-phenyl-acetyl)-pyrrolidin-2-yl]-3H-benzoimidazol-5-yl}-thieno[3,2-b]thiophen-3-yl)-phenyl]-1H-imidazol-2-yl}-pyrrolidine-1-carbonyl)-2-methyl-propyl]-carbamic acid methyl ester], the half-maximal effective concentration (EC50) in series [3] is 2.3 pM; in series [4], 2 nM; in series [1], 0.04 nM; in series [5], 6 pM; with HCV genotype 5a, less than 0.1 nM; in series [6], 0.7 nM. The EC50 came to 2.6 pM in [7]; 0.08 nM in series [2]; 6 pM in series [8]; 0.7 nM in series [9]; 6 pM in [10]; 0.03 nM in [11]. In series [12], this molecule came in with an EC50 of 0.2 nM. In addition, the Ratio is reported as 1.02 in series [3]; 378 in series [4]; 9 in [1]; 1.67 in series [5]; 173 in series [6]; 1.14 in series [7]. Also, the Ratio in [2] was determined as 21; in series [8] it was 1.64; in series [9], 174; in series [10], 1.61; in series [11], 6; in series [12], 63.

In general, CC50 refers to the concentration that lowers cell viability or growth by half. A low value points to greater toxicity to the cells. The term EC50 denotes the concentration needed to bring the measured effect to its halfway point. High values mean a less potent agent, low ones a more potent agent.
